Data published in patent US6399570B1, “Antimicrobial/endotoxin neutralizing polypeptide” (priority 1999, dated 2002).

Columns and labels:
E. coli 0111 = assay: Potentiation of Rifampicin by LF polypeptides; conditions: 5 μM polypeptide + 0.9 μg/ml rifampicin, 6 hr
Protocol: E. coli cultures were exposed to sub-optimal doses of Rifampicin in the presence or absence of sub-optimal doses of the indicated polypeptides (FIG. 5), and were incubated for 6 hours, at which point CFU were determined.
E. coli 0111 were grown overnight as described above. Overnight cultures were then diluted 1:16,000 in 1% BP/PBS containing 0.9 μg/ml Rifampicin (Sigma-Aldrich Fine chemicals) and 5 μM LF polypeptides as indicated. Control cultures were those not exposed to any polypeptide. The diluted cultures were then incubated at 37° C. for 6 hr with aeration by shaking. The number of viable bacteria were then determined by dilution plating samples from each group and subsequently counting colony forming units (CFU). All values represent the average of duplicate independent experiments.

[1] = test system: lipid A from E. coli 0113; assay: LAL assay, neutralization of lipid A endotoxin activity (FIG. 6); type: biochemical; conditions: lipid A 30 ng/ml
Protocol: The lipid A region of the LPS molecule is primarily responsible for the inflammatory and toxic effects of LPS. When LPS is released from the microbe, the lipid A portion may become more accessible. The following assays were performed to determine the potential of various amino-terminal LF polypeptides to neutralize the endotoxic activity of the lipid A portion of LPS. LF, the 6 kDa fragment of LF, LF-33, LF-27, and polymyxin B were each tested for the ability to neutralize the endotoxin activity of lipid A from E. coli 0113 (30 ng/ml), using a LAL assay. […] The endotoxin activity of the smaller fragments of LF indicate that endotoxin-neutralizing activity of these small polypeptides is masked when in the context of the intact LF molecule.

E. coli LPS = assay: Limulus ELISA, ENC50 against E. coli LPS; type: biochemical, Escherichia coli O113:H10
Protocol: (§1) The peptide-mediated inhibition of endotoxin-induced Limulus amebocyte lysate (LAL) coagulation was measured with a sensitive LAL assay (Zhang et al., J. Clin. Microbiol. 32: 416-422 (1994)). Limulus ELISA is an endotoxin assay based on activation of the LAL coagulation by endotoxin and detection of the generated peptide-C immunoreactivity with an ELISA using a monoclonal antibody to the polypeptide. Endotoxin was defined to be neutralized when it lost its ability to activate the LAL enzymes. The 50% endotoxin-neutralizing concentration (ENC50) reflects the potency of an anti-endotoxin agent; a low ENC50 indicates high potency. Table 2 lists the determined ENC50 value of each anti-endotoxin agent against lipid A and four different types of LPS. The potency of each anti-endotoxin agent varied depending on the type of endotoxin. […] The only difference between the sequence of LF-33 and LF-27 is that LF-27 lacks the first six residues (GRRRRS) at the N-terminus of LF-33. Remarkably, this deletion led to dramatic loss of the endotoxin-neutralizing capacity of the polypeptide in this assay. Binding of serum proteins to endotoxin neutralizes the endotoxin activity in this assay by preventing endotoxin from activating LAL (Emancipator et al., Infect. Immun. 60: 596-601 (1992)).
(§2) LPS. […] LPS (purity >99%) from Neisseria meningitidis was prepared from the group B strain #6275 and its potency was 25 EU/ng. […] The potency of the above endotoxin was determined with the Limulus enzyme-linked immunosorbent assay (ELISA, 43) in comparison with US Pharmacopeia reference standard endotoxin EC-5.
(§3) Briefly, 25 μl endotoxin solution (200 EU/ml) was mixed with an equal volume of test materials in a series of two-fold dilution in 0.15 M NaCl in a sterile 96-well tissue culture plate (Nunc A/S, Roskilde, Denmark), and incubated at 37° C. for 1 h in a dry-air incubator. […] The endotoxin activity was then quantified with the use of Limulus ELISA (Zhang et al., J. Clin. Microbiol. 32: 416-422 (1994)). […] The high sensitivity of the assay allowed for very low levels of the endotoxin activity to be detected. […]

N. min. LPS = assay: Limulus ELISA, ENC50 against N. min. LPS; type: biochemical, Neisseria meningitidis; conditions: endotoxin 200 EU/ml; mean +/− SD
Protocol: as §1, §2, §3

Molecule	effect on the antimicrobial activity of rifampicin (viable bacteria) (E. coli 0111)	lipid A neutralizing activity [1]	fold less potent than LF-33 at neutralizing E. coli LPS (E. coli LPS)	IC50 (E. coli LPS; endotoxin 200 EU/ml, mean +/− SD) [µM]	ENC50 against N. min. LPS (N. min. LPS)	IC50 (N. min. LPS) [µM]
6 kDa polypeptide: 6 kDa fragment produced by cathepsin D digestion of human LF, amino acids 1-49 of SEQ ID NO: 2 (GRRRRSVQWCAVSQPEATKCFQWQRNMRKVRGPPVSCIKRDSPIQCIQA; listed as Homo sapiens)	more than three orders of magnitude	neutralized lipid A				
CSCC[C@H](NC(=O)[C@H](CC(N)=O)NC(=O)[C@H](CCCNC(=N)N)NC(=O)[C@H](CCC(N)=O)NC(=O)[C@H](Cc1c[nH]c2ccccc12)NC(=O)[C@H](CCC(N)=O)NC(=O)[C@H](Cc1ccccc1)NC(=O)[C@H](CS)NC(=O)[C@H](CCCCN)NC(=O)[C@@H](NC(=O)[C@H](C)NC(=O)[C@H](CCC(=O)O)NC(=O)[C@@H]1CCCN1C(=O)[C@H](CCC(N)=O)NC(=O)[C@H](CO)NC(=O)[C@@H](NC(=O)[C@H](C)NC(=O)[C@H](CS)NC(=O)[C@H](Cc1c[nH]c2ccccc12)NC(=O)[C@H](CCC(N)=O)NC(=O)[C@@H](N)C(C)C)C(C)C)[C@@H](C)O)C(=O)N[C@@H](CCCNC(=N)N)C(=O)N[C@@H](CCCCN)C(=O)N[C@H](C(=O)N[C@@H](CCCNC(=N)N)C(=O)NCC(=O)N1CCC[C@H]1C(=O)O)C(C)C [LF-27]	no significant effect	neutralized lipid A	approximately 10 fold	7.45	no detectable activity	> 300
